Experiments:
[1] = test system: Cryptostegia grandiflora (Rubber vine); set-up: key: X indicates that the given herbicide is suitable for controlling the given weed; settings: cited from earlier work
Mimosa pigra (Mimosa) = test system: Mimosa pigra (Mimosa); set-up: key: X indicates that the given herbicide is suitable for controlling the given weed; settings: cited from earlier work
[2] = test system: Vachellia nilotica (Prickly acacia); set-up: key: X indicates that the given herbicide is suitable for controlling the given weed; settings: cited from earlier work
[3] = test system: western white gum (Eucalyptus argophloia); experiment: Example 2: glyphosate and hexazinone capsules, thinning trial in western white gum plantation
Procedure: The trial for this example was established at the HQP plantation near Jandowae on 6 Feb. 2018. The trees were planted in rows 4 m apart at 1.5 m spacing. Trees were 6-10 m tall. Trees to be maintained were marked and the other trees were treated.
Four treatments were used, with capsules as follows:
The capsules used were HPMC Size 0 Natural TR.V700 colour cap and body Vcaps (Suzhou Capsugel® Ltd, China). Capsules were hand packed using a Capsugel Profiller apparatus (https://www.capsugel.com/biopharmaceutical-products/profiller). An embodiment of apparatus 10 adapted to include handle 2201 (FIG. 17) was used to drill a hole into the stem, insert the herbicide capsule and seal with a wooden plug.
Herbicide capsules were applied to approximately 10 trees for each of the treatments. The number of capsules applied to each tree was independent of tree circumference which was measured at chest height. The tree circumferences range was from 20 to 34 centimetres. At 4 weeks, a small sample of trees were cut down with a chainsaw and cross-sections of stems containing the sites of insertion of the herbicide capsules removed. These stem pieces were returned to the laboratory and split open longitudinally through the insertion point. Tree health was assessed at 11 weeks (24 Apr. 2018) on a 0-4 scale with 0 being dead and 4 being healthy. Observations were made for evidence of flashback in untreated trees.

[4] = test system: Lycium ferocissium (African boxthom); set-up: key: X indicates that the given herbicide is suitable for controlling the given weed; settings: cited from earlier work
[5] = test system: Parkinsonia aculeata (Parkinsonia); set-up: key: X indicates that the given herbicide is suitable for controlling the given weed; settings: cited from earlier work
Acacia spp (Wattles) = test system: Acacia spp (Wattles); set-up: key: X indicates that the given herbicide is suitable for controlling the given weed; settings: cited from earlier work
[6] = test system: Ailanthus altissima (Tree-of-heaven); set-up: key: X indicates that the given herbicide is suitable for controlling the given weed; settings: cited from earlier work
[7] = test system: Eucalyptus spp (Box, Eucalypt); set-up: key: X indicates that the given herbicide is suitable for controlling the given weed; settings: cited from earlier work
[8] = test system: Harungana madagarcariensis (Harungana); set-up: key: X indicates that the given herbicide is suitable for controlling the given weed; settings: cited from earlier work
[9] = test system: Cascabela thevetia (Yellow oleander); set-up: key: X indicates that the given herbicide is suitable for controlling the given weed; settings: cited from earlier work
[10] = test system: Schinus terebinthifolius (Broad-leafed pepper tree); set-up: key: X indicates that the given herbicide is suitable for controlling the given weed; settings: cited from earlier work
Phoenix spp (Palms) = test system: Phoenix spp (Palms); set-up: key: X indicates that the given herbicide is suitable for controlling the given weed; settings: cited from earlier work
[11] = test system: Tamarix aphylla (Athel pine); set-up: key: X indicates that the given herbicide is suitable for controlling the given weed; settings: cited from earlier work
[12] = test system: Senna pendula (Winter senna); set-up: key: X indicates that the given herbicide is suitable for controlling the given weed; settings: cited from earlier work
[13] = test system: Chamaecytisus palmensis (Tree lucerne); set-up: key: X indicates that the given herbicide is suitable for controlling the given weed; settings: cited from earlier work
[14] = test system: Rubus anglocandicans (Blackberry); set-up: key: X indicates that the given herbicide is suitable for controlling the given weed; settings: cited from earlier work
Angophora spp (Apple) = test system: Angophora spp (Apple); set-up: key: X indicates that the given herbicide is suitable for controlling the given weed; settings: cited from earlier work
[15] = test system: Ligustrum sinense (Chinese privet); set-up: key: X indicates that the given herbicide is suitable for controlling the given weed; settings: cited from earlier work
[16] = test system: Bursaria spinosa (Australian blackthorn); set-up: key: X indicates that the given herbicide is suitable for controlling the given weed; settings: cited from earlier work
[17] = test system: Ligustrum lucidum (Broad leaf privet); set-up: key: X indicates that the given herbicide is suitable for controlling the given weed; settings: cited from earlier work
Lantana camara (Lantana) = test system: Lantana camara (Lantana); set-up: key: X indicates that the given herbicide is suitable for controlling the given weed; settings: cited from earlier work
[18] = test system: Caesalpinia decapetala (Thorny poinciana); set-up: key: X indicates that the given herbicide is suitable for controlling the given weed; settings: cited from earlier work
[19] = test system: Jatropha gossypiifolia (Bellyache bush); set-up: key: X indicates that the given herbicide is suitable for controlling the given weed; settings: cited from earlier work
[20] = test system: Leucaena leucocephala (Leucaena); set-up: key: X indicates that the given herbicide is suitable for controlling the given weed; settings: cited from earlier work
[21] = test system: Azadirachta indica (Neem); set-up: key: X indicates that the given herbicide is suitable for controlling the given weed; settings: cited from earlier work
[22] = test system: Ziziphus mauritania (Chinee apple); set-up: key: X indicates that the given herbicide is suitable for controlling the given weed; settings: cited from earlier work
[23] = test system: Senegalia catechu (Cutch tree); set-up: key: X indicates that the given herbicide is suitable for controlling the given weed; settings: cited from earlier work
Salix species (Willows) = test system: Salix species (Willows); set-up: key: X indicates that the given herbicide is suitable for controlling the given weed; settings: cited from earlier work
[24] = test system: Leptospermum spp. (Tea trees); set-up: key: X indicates that the given herbicide is suitable for controlling the given weed; settings: cited from earlier work
[25] = test system: Solanum mauritianum (Wild tobacco tree); set-up: key: X indicates that the given herbicide is suitable for controlling the given weed; settings: cited from earlier work
Melalauca spp = test system: Melalauca spp; set-up: key: X indicates that the given herbicide is suitable for controlling the given weed; settings: cited from earlier work
[26] = test system: Eremophila mitchellii (False sandalwood); set-up: key: X indicates that the given herbicide is suitable for controlling the given weed; settings: cited from earlier work
[27] = test system: Vachellia famesiana (Mimosa bush); set-up: key: X indicates that the given herbicide is suitable for controlling the given weed; settings: cited from earlier work
[28] = test system: Atalaya hemiglauca (Whitewood); set-up: key: X indicates that the given herbicide is suitable for controlling the given weed; settings: cited from earlier work
[29] = test system: Planchonia careya (Cocky apple); set-up: key: X indicates that the given herbicide is suitable for controlling the given weed; settings: cited from earlier work
[30] = test system: Calotropis procera (Rubber bush); set-up: key: X indicates that the given herbicide is suitable for controlling the given weed; settings: cited from earlier work
[31] = test system: Cestrum parqui (Green cestrum); set-up: key: X indicates that the given herbicide is suitable for controlling the given weed; settings: cited from earlier work
[32] = test system: Ricinus communis (Castor oil plant); set-up: key: X indicates that the given herbicide is suitable for controlling the given weed; settings: in vivo; cited from earlier work
[33] = test system: Banksia spp (Bottlebrush); set-up: key: X indicates that the given herbicide is suitable for controlling the given weed; settings: cited from earlier work
Acer negudo (Box elder) = test system: Acer negudo (Box elder); set-up: key: X indicates that the given herbicide is suitable for controlling the given weed; settings: cited from earlier work
[34] = test system: Crataegus sinaica (Azarola); set-up: key: X indicates that the given herbicide is suitable for controlling the given weed; settings: cited from earlier work
Prosopis spp (Mesquite) = test system: Prosopis spp (Mesquite); set-up: key: X indicates that the given herbicide is suitable for controlling the given weed; settings: cited from earlier work
[35] = test system: Olea europea sbsp europa (European olive); set-up: key: X indicates that the given herbicide is suitable for controlling the given weed; settings: cited from earlier work
[36] = test system: Cinnamonum camphora (Camphor laurel); set-up: key: X indicates that the given herbicide is suitable for controlling the given weed; settings: cited from earlier work
[37] = test system: Olea europea sbsp africana (African olive); set-up: key: X indicates that the given herbicide is suitable for controlling the given weed; settings: cited from earlier work

COc1c(Cl)ccc(Cl)c1C(=O)O [Dicamba]
suitability of herbicide for control of weed [1]: X | suitability of herbicide for control of weed (Mimosa pigra (Mimosa)): X

CN(C)C(=O)Nc1ccc(Cl)c(Cl)c1 [Diuron]
suitability of herbicide for control of weed [2]: X

CN(C)c1nc(=O)n(C2CCCCC2)c(=O)n1C [Hexazinone]
suitability of herbicide for control of weed [1]: X | trees died / killed (health rating 0-4 scale, 0 dead) ([3]; Eucalyptus argophloia, 11 weeks post treatment, 1 or 2 capsules per tree): only a small percentage of trees killed | plant health (yellowing of the foliage) ([3]; Eucalyptus argophloia, 11 weeks, 1 or 2 capsules per tree): obvious deterioration in plant health | flashback in the trees marked for retention ([3]; in vivo): no flashback was observed | suitability of herbicide for control of weed [2]: X | suitability of herbicide for control of weed [4]: X | suitability of herbicide for control of weed [5]: X | suitability of herbicide for control of weed (Acacia spp (Wattles)): X | suitability of herbicide for control of weed [6]: X | suitability of herbicide for control of weed [7]: X

CC(C)C1(C)N=C(c2ncccc2C(=O)O)NC1=O (stereo not drawn) [Imazapyr]
suitability of herbicide for control of weed [1]: X | suitability of herbicide for control of weed [8]: X | suitability of herbicide for control of weed [9]: X | suitability of herbicide for control of weed [10]: X | suitability of herbicide for control of weed [6]: X | suitability of herbicide for control of weed (Phoenix spp (Palms)): X | suitability of herbicide for control of weed [11]: X

COC(=O)c1ccccc1S(=O)(=O)NC(=O)Nc1nc(C)nc(OC)n1 [Metsulfuron-methyl]
suitability of herbicide for control of weed [12]: X | suitability of herbicide for control of weed [1]: X | suitability of herbicide for control of weed [13]: X | suitability of herbicide for control of weed [14]: X | suitability of herbicide for control of weed [8]: X | suitability of herbicide for control of weed (Angophora spp (Apple)): X | suitability of herbicide for control of weed (Acacia spp (Wattles)): X | suitability of herbicide for control of weed [6]: X | suitability of herbicide for control of weed [15]: X | suitability of herbicide for control of weed [16]: X | suitability of herbicide for control of weed [17]: X | suitability of herbicide for control of weed (Mimosa pigra (Mimosa)): X | suitability of herbicide for control of weed (Lantana camara (Lantana)): X | suitability of herbicide for control of weed [18]: X | suitability of herbicide for control of weed [7]: X | suitability of herbicide for control of weed [19]: X

Nc1c(Cl)c(Cl)nc(C(=O)O)c1Cl [Picloram]
suitability of herbicide for control of weed [13]: X | suitability of herbicide for control of weed [14]: X | suitability of herbicide for control of weed [20]: X | suitability of herbicide for control of weed [4]: X | suitability of herbicide for control of weed [21]: X | suitability of herbicide for control of weed (Acacia spp (Wattles)): X | suitability of herbicide for control of weed [22]: X | suitability of herbicide for control of weed [10]: X | suitability of herbicide for control of weed [23]: X | suitability of herbicide for control of weed (Salix species (Willows)): X | suitability of herbicide for control of weed [17]: X | suitability of herbicide for control of weed (Lantana camara (Lantana)): X | suitability of herbicide for control of weed [24]: X | suitability of herbicide for control of weed [25]: X

CNC(=O)N(C)c1nnc(C(C)(C)C)s1 [Tebuthiuron]
suitability of herbicide for control of weed [1]: X | suitability of herbicide for control of weed (Melalauca spp): X | suitability of herbicide for control of weed [26]: X | suitability of herbicide for control of weed [2]: X | suitability of herbicide for control of weed [4]: X | suitability of herbicide for control of weed [5]: X | suitability of herbicide for control of weed [27]: X | suitability of herbicide for control of weed (Acacia spp (Wattles)): X | suitability of herbicide for control of weed [28]: X | suitability of herbicide for control of weed [29]: X | suitability of herbicide for control of weed (Mimosa pigra (Mimosa)): X | suitability of herbicide for control of weed (Lantana camara (Lantana)): X | suitability of herbicide for control of weed [30]: X

O=C(O)COc1nc(Cl)c(Cl)cc1Cl [Triclopyr]
suitability of herbicide for control of weed [1]: X | suitability of herbicide for control of weed [14]: X | suitability of herbicide for control of weed [31]: X | suitability of herbicide for control of weed [32]: X | suitability of herbicide for control of weed [2]: X | suitability of herbicide for control of weed [33]: X | suitability of herbicide for control of weed [4]: X | suitability of herbicide for control of weed (Angophora spp (Apple)): X | suitability of herbicide for control of weed [21]: X | suitability of herbicide for control of weed (Acacia spp (Wattles)): X | suitability of herbicide for control of weed [22]: X | suitability of herbicide for control of weed [10]: X | suitability of herbicide for control of weed [23]: X | suitability of herbicide for control of weed [6]: X | suitability of herbicide for control of weed [15]: X | suitability of herbicide for control of weed (Phoenix spp (Palms)): X | suitability of herbicide for control of weed (Acer negudo (Box elder)): X | suitability of herbicide for control of weed [16]: X | suitability of herbicide for control of weed [17]: X | suitability of herbicide for control of weed (Lantana camara (Lantana)): X | suitability of herbicide for control of weed [34]: X | suitability of herbicide for control of weed [11]: X | suitability of herbicide for control of weed (Prosopis spp (Mesquite)): X | suitability of herbicide for control of weed [7]: X | suitability of herbicide for control of weed [35]: X | suitability of herbicide for control of weed [36]: X | suitability of herbicide for control of weed [37]: X
